# Test results as given in article PMC10154330, “Machine learning-driven multifunctional peptide engineering for sustained ocular drug delivery” (Nature Communications, 2023).
# Ends that are not written are not given here.
# What was measured:
# ARPE-19 cells = experiment: Cell viability assay of HR97 peptide (PrestoBlue HS); assay type: cell-based, human; settings: concentrations up to 5 mg/mL, 12 h incubation, n = 5
# Protocol: The PrestoBlue^TM HS cell viability system was used to assess cell viability. ARPE-19 cells were seeded at 0.01 × 10^6 cells/well in 96 well plates and cultured with DMEM:F12 medium containing 10% FBS according to the vendor protocol. After 7 days, 90 µL of DMEM/F12 containing 0, 1, 5, 10, or 20 mg/mL of the HR97 was added. The cells (n = 5) were then incubated for 12 h, and viability was measured by adding 10 µL of PrestoBlue^TM HS cell viability reagents at 37 °C. After 0.5, 1, 2, 3, 4 and 5 h, absorbance (570 nm and 600 nm) was measured at 37 °C and normalized according to the protocol provided by the vendor.
# [1] = Ocular safety evaluation / ocular grading after ICM injection; settings: rabbit, in vivo
# Protocol: (§1) For the IOP measurements in normotensive rabbits, Dutch Belted rabbits (2–3 kg) were used (n = 5). IOP was measured with a hand-held rebound tonometer icareTONOVET (Vantaa, Finland) in the awake and gently restrained rabbit. Each rabbit was acclimatized to the IOP measurement procedure for at least 5 days to obtain a stable background IOP reading. A mean of three IOP measurements for an individual eye were taken every other day for 6 days (3 times in total) and used as a baseline value. For the ICM injection procedure, rabbits were anesthetized with ketamine/xylazine and received topical anesthesia with 0.5% proparacaine hydrochloride. A corneal pre-puncture was performed with a 30 G needle, followed with a single bolus ICM injection of 200 µg (mass of brimonidine) of HR97-brimonidine or brimonidine tartrate solution in 100 µL saline using a 28 G needle. After the procedure, topical bacitracin-neomycin-polymyxin ophthalmic ointment was applied to both eyes to prevent infection and dry eyes. On day 7, an ophthalmologist masked to treatment evaluate the HR97-brimonidine injected eyes with the following items: functionality of lids, lashes, conjunctiva, cornea transparency, pigmentation of corneal endothelium, depth of anterior chambers, inflammation, fibrin strands, and symmetry of the lens[113]. […] In a separate study, a corneal pre-puncture was performed with a 30 G needle, followed with a single bolus ICM injection of 200 µg (mass of brimonidine) containing a physical mixture of unconjugated HR97 and brimonidine tartrate (HR97 + brimonidine), the equivalent amount of HR97 peptide alone, or saline alone in 100 µL saline. On day 7, day 14, day 21, and day 28, an ophthalmologist masked to treatment performed the same safety evaluations described above. IOP was measured on days 2, 3, 4, 5, 6, 7, 8, 10, 12, 14, 16, 18, and 20 after the ICM injection, and change in IOP from the baseline (ΔIOP) was reported. The mean of three IOP measurements was taken for each eye by one observer, and then confirmed by a masked observer. Alternatively, a single topical eye drop (Alphagan® P 0.1%, 50 µL) was given (n = 5). The IOP were measured immediately before the topical dosing (0 h), and at 2, 4, 6 and 8 h after the eyedrop administration. For the pharmacokinetics studies, rabbits (n = 4 per group) received a single ICM injection with 200 µg (mass of brimonidine) HR97-brimonidine as described above. Rabbits were sacrificed 1, 7, 14, 28 days after the injection, and iris, aqueous, and retina were collected for measuring the brimonidine concentration.
# [2] = tested on: human cathepsins B, K, L, and S; experiment: in vitro; settings: isolated enzyme cathepsin other, pH 5.5, cathepsin cleavage assay
# [3] = tested on: melanin nanoparticles (mNPs); experiment: Melanin binding assay for machine learning model validation (RED device, biotin quantitation); design: species or system Sepia officinalis; settings: C-terminal biotinylated peptide 10 µM with mNPs, pH 6.5 PBS, RED 8K device, 24 h, 900 rpm; unbound peptide by fluorescence biotin quantitation; n = 4
# Protocol: The mNPs were mixed with C-terminal biotinylated peptides (10 µM) in pH 6.5 PBS solution and incubated in the rapid equilibrium dialysis (RED) 8 K device for 24 h on an orbital shaker at 900 rpm. A total of 10 µL of the solution from the rapid dialysis reservoir was collected. The concentration of unbound biotinylated peptides was analyzed with the Pierce™ Fluorescence Biotin Quantitation Kit. Four sets of melanin binding assays were performed. Melanin binding was calculated as the difference in free peptide normalized with the starting peptide concentration. Experimental melanin binding values of the 127 peptide candidates were compared with the predicted melanin binding values with the Pearson correlation. Melanin binding predictions larger than 100% were cast to 100% because this was the maximum value in the melanin binding training set.
# [4] = tested on: melanin-induced ARPE-19 cells; experiment: Cell-penetration (cell uptake) assay, melanin-induced ARPE-19; assay type: cell-based, human; settings: C-terminal biotinylated peptide 100 µM in pH 6.5 PBS, 6 h, 37 °C, 5 PBS washes, RIPA lysis, fluorescence biotin quantitation, n = 3
# Protocol: Three 96 well plates per ARPE19 cell type group (melanin-induced or non-melanin induced) were seeded at 0.01 × 10^6 cells/well. ARPE-19 cells were either cultured with DMEM:F12 medium containing 10% FBS according to protocol provided by the vendor (non-melanin induced) or cultured in DMEM high glucose, pyruvate media with 250 µM of ferric ammonium citrate[107] for 2 months (melanin-induced)[20]. The expression of melanin was confirmed visually with bright field microscopy and by measuring absorbance at 475 nm (>0.4 arb. units)[20]. Within each plate, 12 wells were randomly selected to quantify the cell numbers with an automated cell counter (Countess 3 Automated Cell Counter, Thermo Fisher) for normalization in the cell uptake study. […] To quantify cell-associated peptides, the cells were lysed with 100 µL of RIPA lysis buffer at 4 °C for 48 h. The concentration of intracellular biotinylated peptides was analyzed with the Pierce™ Fluorescence Biotin Quantitation Kit. The mean intracellular concentration values of the three replicates were then grouped by cell types (melanin-induced or non-melanin induced), and a two-tailed Mann–Whitney U (Wilcoxon rank-sum) test was calculated using the wilcox.test function in R. The intracellular concentration values were also plotted against experimental melanin binding. […]
# [5] = tested on: melanin nanoparticles (mNPs); experiment: In vitro melanin binding assay (binding capacity and Kd, RED device, HPLC); design: species or system Sepia officinalis; settings: binding capacity and dissociation constant of ocular drugs, melanin
# Protocol: The solutions (400 µL) were then mixed thoroughly with 400 µL of 1 mg/mL mNPs in pH 6.5 PBS solution and transferred to the inner reservoir of the rapid equilibrium dialysis (RED) device inserts (8 K MWCO). The outer reservoir was filled with 800 µL of pH 6.5 PBS solution. The samples were incubated on an orbital shaker with temperature control at 37 °C and 300 rpm for 48 h (n = 3). The solutions from outer reservoir (free drug) were than collected and transferred to an autosampler vial for HPLC analysis (Prominence LC2030, Shimadzu, Columbia, MD) with photodiode-array detection (PDA) system. […] The amount of bound drug was used to calculate the binding capacity (mol drug/mg melanin) and the dissociation constant (Kd) as previously described[20],[34].
# intraocular pressure = experiment: IOP measurement in normotensive Dutch Belted rabbits; assay type: in vivo; settings: for cumulative IOP change: Brimonidine group
# Protocol: as §1
# [6] = ref 3 of the peer review file, Acheampong et al. 2002; cited from earlier work
# Text: 1.5 Brimonidine is applied as eye drops three times per day. […] Why is that? What is the required free brimonidine concentration for activity?
# [7] = tested on: melanin nanoparticles (mNPs); experiment: Relative binding of drugs to mNPs; design: species or system Sepia officinalis
# Text: (§2) Supplementary Fig. 1 | Characterization of melanin nanoparticles (mNPs) and biotinylated-melanin
# (§3) nanoparticles (b-mNPs). a Representative transmission electron microscopes (TEM) images of mNPs and b-
# (§4) (black dots, n = 3 per drug group) and b-mNPs (gray squares, n = 3 per drug group). Data are shown as mean ±
# (§5) (1 picture or pasted object on this page, not shown here)
# [8] = tested on: biotinylated melanin nanoparticles (b-mNPs); experiment: Relative binding of drugs to b-mNPs; design: species or system Sepia officinalis
# Text: as §2, §3, §4, §5
# [9] = Brimonidine in ocular tissues after ICM injection (LC-MS/MS)
# Protocol: as §1
# Brimonidine concentrations in ocular tissues were measured by liquid chromatography-tandem mass spectrometry (LC-MS/MS) as previously described. All samples were collected in pre-weighed tubes and stored at −80 °C until processing for analysis. Tissue samples were homogenized in 100–600 μL 1 × PBS using a Bullet Blender® (Next Advance, Inc, Troy, NY, USA) before extraction. Brimonidine were extracted from 15 to 50 μL of tissue homogenates with 50 μL of acetonitrile containing 50/50/2.5 ng/mL of the internal standards. The top layer was then transferred to an autosampler vial for LC-MS/MS analysis after centrifugation. All ocular tissue samples were analyzed using a 1 × PBS standard curve for brimonidine. […] The column effluent was monitored using a 5500 mass-spectrometric detector (Sciex) using electrospray ionization operating in positive mode. The mobile phase A was water containing 0.1% formic acid and mobile phase B was acetonitrile containing 0.1% formic acid. The gradient started with mobile phase B held at 20% for 0.5 min and increased to 100% over 0.5 min; 100% mobile phase B was held for 1 min and then returned to 20% mobile phase B and allowed to equilibrate for 1 min.
compound,measurement,setting,value
FSGKRRKRKPR [HR97],cytotoxicity in ARPE-19 cells,ARPE-19 cells,no sign of cytotoxicity
same,"Ocular grading, all 17 items (pupillary light reflex to Meibomian gland function)",[1],All values are zero
same,"Ocular grading, all other scores of the 17 items",[1],0
same,Ocular grading: Fluorescein staining (area),[1],1
same,Ocular grading: Fluorescein staining (severity),[1],1
same,"ocular toxicity, ophthalmologist evaluation",[1],no ocular toxicity was observed
same,"remaining at 48 h, 100 µM",[2],87.7%
YGRKKRRQRRR [TAT47–57],melanin binding (bound fraction),[3],77.6 ± 1.5%
same,cell uptake (intracellular peptide concentration),[4],457.1 ± 34.2 pmol/100 K cells
Brc1c(NC2=NCCN2)ccc2nccnc12 [brimonidine],Binding Capacity (mole/mg melanin),[5],5e-8 mole/mg melanin
same,Kd,[5],5.27 µM
same,cumulative IOP change,"intraocular pressure; rabbit 1, sex printed Female",3.583
same,cumulative IOP change,"intraocular pressure; rabbit 2, sex printed Male",-9.917
same,cumulative IOP change,"intraocular pressure; rabbit 3, sex printed Female",9.167
same,cumulative IOP change,"intraocular pressure; rabbit 4, sex printed Male",13.75
same,cumulative IOP change,"intraocular pressure; rabbit 5, sex printed Female",2.667
same,peak ΔIOP at 2 days,"intraocular pressure; single ICM injection, 200 µg brimonidine equivalent, n = 5",−2.6 ± 1.65 mmHg
same,time for the mean ΔIOP to return to baseline,"intraocular pressure; single ICM injection, n = 5 per group",8 days
same,EC50 in the aqueous humor,[6],2.9 ng/mL
same,Relative binding of drugs to mNPs,[7]; replicate 1 of n = 3,141.911
same,Relative binding of drugs to mNPs,[7]; replicate 2 of n = 3,83.4707
same,Relative binding of drugs to mNPs,[7]; replicate 3 of n = 3,74.618
same,Relative binding of drugs to b-mNPs,[8]; replicate 1 of n = 3,84.2618
same,Relative binding of drugs to b-mNPs,[8]; replicate 2 of n = 3,102.105
same,Relative binding of drugs to b-mNPs,[8]; replicate 3 of n = 3,167.093
same,"brimonidine levels in eye tissues, Iris","[9]; 1 days, sample 1 (Male)",11376.8
same,"brimonidine levels in eye tissues, Iris","[9]; 1 days, sample 2 (Male)",47581.5
same,"brimonidine levels in eye tissues, Iris","[9]; 1 days, sample 3 (Female)",23310.4
same,"brimonidine levels in eye tissues, Iris","[9]; 7 days, sample 1 (Female)",2210.2
same,"brimonidine levels in eye tissues, Iris","[9]; 7 days, sample 2 (Female)",5336.3
same,"brimonidine levels in eye tissues, Iris","[9]; 7 days, sample 3 (Male)",10576.6
same,"brimonidine levels in eye tissues, Iris","[9]; 7 days, sample 4 (Male)",7554.5
same,"brimonidine levels in eye tissues, Iris","[9]; 14 days, sample 1 (Female)",3473.6
same,"brimonidine levels in eye tissues, Iris","[9]; 14 days, sample 2 (Female)",5226.5
same,"brimonidine levels in eye tissues, Iris","[9]; 14 days, sample 3 (Male)",4493.7
same,"brimonidine levels in eye tissues, Iris","[9]; 14 days, sample 4 (Male)",711.1
same,"brimonidine levels in eye tissues, Iris","[9]; 28 days, sample 1 (Male)",1400.2
same,"brimonidine levels in eye tissues, Iris","[9]; 28 days, sample 2 (Male)",859.9
same,"brimonidine levels in eye tissues, Iris","[9]; 28 days, sample 3 (Female)",1137.6
same,"brimonidine levels in eye tissues, Iris","[9]; 28 days, sample 4 (Female)",522.1
same,"brimonidine levels in eye tissues, Retina","[9]; 1 days, sample 1 (Male)",23.3
same,"brimonidine levels in eye tissues, Retina","[9]; 1 days, sample 2 (Male)",64.6
same,"brimonidine levels in eye tissues, Retina","[9]; 1 days, sample 3 (Female)",636.9
same,"brimonidine levels in eye tissues, Retina","[9]; 1 days, sample 4 (Female)",1138.2
same,"brimonidine levels in eye tissues, Retina","[9]; 7 days, sample 1 (Female)",14.2
same,"brimonidine levels in eye tissues, Retina","[9]; 7 days, sample 2 (Female)",4.9
same,"brimonidine levels in eye tissues, Retina","[9]; 7 days, sample 3 (Male)",125.6
same,"brimonidine levels in eye tissues, Retina","[9]; 7 days, sample 4 (Male)",19.8
same,"brimonidine levels in eye tissues, Retina","[9]; 14 days, sample 1 (Female)",33.2
same,"brimonidine levels in eye tissues, Retina","[9]; 14 days, sample 2 (Female)",7.4
same,"brimonidine levels in eye tissues, Retina","[9]; 14 days, sample 3 (Male)",43
same,"brimonidine levels in eye tissues, Retina","[9]; 14 days, sample 4 (Male)",14.8
same,"brimonidine levels in eye tissues, Retina","[9]; 28 days, sample 1 (Male)",10.7
same,"brimonidine levels in eye tissues, Retina","[9]; 28 days, sample 2 (Male)",7.9
same,"brimonidine levels in eye tissues, Retina","[9]; 28 days, sample 3 (Female)",8.6
same,"brimonidine levels in eye tissues, Retina","[9]; 28 days, sample 4 (Female)",5.8
